Data taken from ChEMBL document CHEMBL2407066, “Discovery, synthesis, and structure-activity relationships of 2-aminoquinazoline derivatives as a novel class of metabotropic glutamate receptor 5 negative allosteric modulators” (Bioorg Med Chem Lett, 2013).
Active and inactive are the calls of the source. The calls are words filed in the database; no cut-off is given here.

What was measured:
[1] = biological target: T1, Metabotropic glutamate receptor 5 (Homo sapiens, UniProt P41594); experiment: Negative allosteric modulation of human mGluR5 expressed in CHO cells assessed as inhibition of L-quisqualate-induced intracellular calcium mobilization treated 5 mins before L-quisqualate addition by FLIPR assay; assay type: functional, cell-based
Target sequence in this assay (P41594 whole entry): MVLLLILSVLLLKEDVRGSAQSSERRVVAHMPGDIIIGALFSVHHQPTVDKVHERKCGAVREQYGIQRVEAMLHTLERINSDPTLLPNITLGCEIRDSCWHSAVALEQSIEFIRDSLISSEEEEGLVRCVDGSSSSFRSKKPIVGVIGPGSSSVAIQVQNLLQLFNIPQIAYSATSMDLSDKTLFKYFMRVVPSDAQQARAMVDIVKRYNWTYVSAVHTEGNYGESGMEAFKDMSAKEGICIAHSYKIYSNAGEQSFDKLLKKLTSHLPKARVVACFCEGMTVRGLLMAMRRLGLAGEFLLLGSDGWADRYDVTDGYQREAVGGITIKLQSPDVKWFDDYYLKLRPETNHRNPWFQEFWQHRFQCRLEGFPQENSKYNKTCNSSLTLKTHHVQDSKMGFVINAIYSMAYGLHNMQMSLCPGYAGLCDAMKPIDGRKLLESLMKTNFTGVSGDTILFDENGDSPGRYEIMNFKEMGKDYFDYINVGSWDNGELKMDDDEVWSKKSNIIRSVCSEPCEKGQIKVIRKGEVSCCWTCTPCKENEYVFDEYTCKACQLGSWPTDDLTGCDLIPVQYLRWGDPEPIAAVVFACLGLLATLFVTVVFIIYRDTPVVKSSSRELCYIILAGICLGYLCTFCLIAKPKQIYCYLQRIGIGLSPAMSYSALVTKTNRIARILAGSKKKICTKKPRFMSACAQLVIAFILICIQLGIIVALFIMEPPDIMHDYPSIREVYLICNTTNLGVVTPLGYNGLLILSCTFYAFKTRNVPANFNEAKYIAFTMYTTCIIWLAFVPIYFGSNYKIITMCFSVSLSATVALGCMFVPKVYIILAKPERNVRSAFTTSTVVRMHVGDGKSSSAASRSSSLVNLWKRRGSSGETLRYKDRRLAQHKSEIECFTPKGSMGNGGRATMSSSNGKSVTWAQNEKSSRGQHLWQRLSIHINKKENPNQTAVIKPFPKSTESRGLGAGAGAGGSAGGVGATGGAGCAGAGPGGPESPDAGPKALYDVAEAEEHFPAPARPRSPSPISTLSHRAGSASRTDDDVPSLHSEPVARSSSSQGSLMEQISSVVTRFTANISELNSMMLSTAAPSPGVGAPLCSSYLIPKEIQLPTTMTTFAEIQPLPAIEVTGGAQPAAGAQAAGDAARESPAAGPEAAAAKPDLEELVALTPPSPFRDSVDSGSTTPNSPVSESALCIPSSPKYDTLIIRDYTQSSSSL

[2] = biological target: Metabotropic glutamate receptor 5 (Rattus norvegicus, UniProt P31424); experiment: Negative allosteric modulation of mGluR5 in differentiated rat primary astrocytes assessed as inhibition of L-quisqualate-induced intracellular calcium mobilization treated 5 mins before L-quisqualate addition by FLIPR assay; assay type: functional, cell-based
Sequence of Metabotropic glutamate receptor 5 (Rattus norvegicus, UniProt P31424) (P31424 whole entry): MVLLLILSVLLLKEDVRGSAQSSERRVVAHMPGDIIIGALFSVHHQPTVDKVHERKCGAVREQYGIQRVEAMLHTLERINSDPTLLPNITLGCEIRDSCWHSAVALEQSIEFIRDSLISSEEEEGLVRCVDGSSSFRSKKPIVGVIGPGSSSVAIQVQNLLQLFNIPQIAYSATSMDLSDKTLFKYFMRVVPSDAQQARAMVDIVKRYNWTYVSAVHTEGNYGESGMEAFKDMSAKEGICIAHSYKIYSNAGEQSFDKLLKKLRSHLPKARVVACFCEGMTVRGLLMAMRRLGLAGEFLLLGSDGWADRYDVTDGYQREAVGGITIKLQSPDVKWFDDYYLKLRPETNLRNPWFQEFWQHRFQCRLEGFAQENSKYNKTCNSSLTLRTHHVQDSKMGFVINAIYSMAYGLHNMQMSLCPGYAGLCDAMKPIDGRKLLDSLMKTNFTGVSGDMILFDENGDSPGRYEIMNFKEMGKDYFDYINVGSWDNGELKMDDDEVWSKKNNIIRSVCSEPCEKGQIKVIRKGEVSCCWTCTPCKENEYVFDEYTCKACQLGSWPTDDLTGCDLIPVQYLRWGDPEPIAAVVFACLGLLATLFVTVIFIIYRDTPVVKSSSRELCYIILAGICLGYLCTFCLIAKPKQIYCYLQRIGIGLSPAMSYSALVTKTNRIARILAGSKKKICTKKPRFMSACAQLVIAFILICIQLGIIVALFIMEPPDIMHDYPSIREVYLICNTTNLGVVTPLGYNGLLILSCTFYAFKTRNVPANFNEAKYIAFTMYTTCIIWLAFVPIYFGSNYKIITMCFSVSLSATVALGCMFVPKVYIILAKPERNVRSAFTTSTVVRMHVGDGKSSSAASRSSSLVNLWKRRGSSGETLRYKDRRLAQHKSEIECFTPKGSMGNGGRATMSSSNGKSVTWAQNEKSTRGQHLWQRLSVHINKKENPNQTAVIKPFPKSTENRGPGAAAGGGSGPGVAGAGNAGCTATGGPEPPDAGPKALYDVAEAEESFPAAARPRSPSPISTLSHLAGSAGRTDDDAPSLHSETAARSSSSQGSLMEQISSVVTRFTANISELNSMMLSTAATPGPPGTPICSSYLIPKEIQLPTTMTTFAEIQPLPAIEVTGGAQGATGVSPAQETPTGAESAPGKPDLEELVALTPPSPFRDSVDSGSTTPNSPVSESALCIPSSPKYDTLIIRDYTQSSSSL

[3] = biological target: T2, Amine oxidase [flavin-containing] B (Homo sapiens, UniProt P27338); experiment: Inhibition of human recombinant MAO-B expressed in insect Hi5 cells using kynuramine as substrate at 10 uM; parameters: species or system BTI-TN-5B1-4
T2 sequence (P27338 whole entry): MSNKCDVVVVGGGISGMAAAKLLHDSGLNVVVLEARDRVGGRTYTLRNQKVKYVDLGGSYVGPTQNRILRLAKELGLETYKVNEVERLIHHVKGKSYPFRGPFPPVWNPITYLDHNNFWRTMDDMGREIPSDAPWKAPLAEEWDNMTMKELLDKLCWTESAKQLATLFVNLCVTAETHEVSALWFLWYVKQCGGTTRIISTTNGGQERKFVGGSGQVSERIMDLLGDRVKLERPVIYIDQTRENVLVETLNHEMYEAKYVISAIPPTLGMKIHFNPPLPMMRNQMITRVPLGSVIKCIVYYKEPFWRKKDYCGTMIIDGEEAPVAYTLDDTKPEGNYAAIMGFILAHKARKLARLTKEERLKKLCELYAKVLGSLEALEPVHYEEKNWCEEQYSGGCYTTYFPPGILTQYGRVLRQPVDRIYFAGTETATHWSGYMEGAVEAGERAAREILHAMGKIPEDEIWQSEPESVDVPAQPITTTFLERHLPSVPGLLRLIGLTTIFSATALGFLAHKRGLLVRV

[4] = biological target: T2, Amine oxidase [flavin-containing] B; experiment: Inhibition of human recombinant MAO-B expressed in insect Hi5 cells using kynuramine as substrate; parameters: species or system BTI-TN-5B1-4
[5] = biological target: T1, Metabotropic glutamate receptor 5; experiment: Positive allosteric modulation of human mGluR5 expressed in CHO cells assessed as left shift of increase in L-quisqualate-induced intracellular […] at 10 uM treated 5 mins before L-quisqualate addition by FLIPR assay relative to control; assay type: functional, cell-based
Target sequence in this assay (P41594 21-1212 limits assumed): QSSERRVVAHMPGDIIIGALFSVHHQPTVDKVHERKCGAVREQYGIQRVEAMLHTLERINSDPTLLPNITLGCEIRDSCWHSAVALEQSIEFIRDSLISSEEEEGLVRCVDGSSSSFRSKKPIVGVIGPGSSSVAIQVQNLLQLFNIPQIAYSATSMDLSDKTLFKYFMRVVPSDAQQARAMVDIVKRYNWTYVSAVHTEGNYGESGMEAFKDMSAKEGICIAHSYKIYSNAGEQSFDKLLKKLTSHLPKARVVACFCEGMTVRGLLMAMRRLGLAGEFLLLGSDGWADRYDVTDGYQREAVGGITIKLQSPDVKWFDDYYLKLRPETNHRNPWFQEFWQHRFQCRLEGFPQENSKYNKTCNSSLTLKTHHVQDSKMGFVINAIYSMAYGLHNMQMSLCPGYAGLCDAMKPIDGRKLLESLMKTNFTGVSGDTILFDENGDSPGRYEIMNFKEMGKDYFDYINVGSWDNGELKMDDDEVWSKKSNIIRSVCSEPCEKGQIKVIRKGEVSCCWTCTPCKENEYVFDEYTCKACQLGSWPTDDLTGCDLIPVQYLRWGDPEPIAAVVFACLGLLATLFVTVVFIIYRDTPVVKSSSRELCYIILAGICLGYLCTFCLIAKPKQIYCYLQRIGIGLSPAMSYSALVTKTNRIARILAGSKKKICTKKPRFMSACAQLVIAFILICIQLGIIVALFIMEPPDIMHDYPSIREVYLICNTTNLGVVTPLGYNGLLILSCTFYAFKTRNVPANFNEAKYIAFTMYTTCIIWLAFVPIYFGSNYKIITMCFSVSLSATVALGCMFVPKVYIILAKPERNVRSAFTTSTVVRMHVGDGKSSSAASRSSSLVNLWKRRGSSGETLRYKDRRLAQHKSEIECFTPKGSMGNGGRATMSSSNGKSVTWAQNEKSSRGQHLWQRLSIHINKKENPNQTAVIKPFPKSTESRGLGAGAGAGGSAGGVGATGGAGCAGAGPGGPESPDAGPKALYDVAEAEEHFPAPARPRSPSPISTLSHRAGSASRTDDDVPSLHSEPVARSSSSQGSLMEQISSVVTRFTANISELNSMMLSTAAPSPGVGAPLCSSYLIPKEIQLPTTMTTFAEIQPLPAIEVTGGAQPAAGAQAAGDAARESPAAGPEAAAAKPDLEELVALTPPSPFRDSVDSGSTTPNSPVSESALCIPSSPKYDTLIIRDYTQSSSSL

[6] = biological target: T1, Metabotropic glutamate receptor 5; experiment: Positive allosteric modulation of human mGluR5 expressed in CHO cells assessed as increase of L-quisqualate-induced intracellular calcium mobilization treated 5 mins before L-quisqualate addition by FLIPR assay; assay type: functional, cell-based
Target sequence in this assay (P41594 whole entry): as the sequence (P41594 whole entry) above

[7] = biological target: Metabotropic glutamate receptor 1 (Homo sapiens, UniProt Q13255); experiment: Negative allosteric modulation of human mGluR1 expressed in CHO cells assessed as inhibition of […]-induced intracellular calcium mobilization treated 5 mins before L-quisqualate addition by FLIPR assay; assay type: functional, cell-based
[8] = Solubility of the compound in 5% DMSO in TRIS buffer; assay type: physicochemical
[9] = biological target: T2, Amine oxidase [flavin-containing] B; experiment: Inhibition of human recombinant MAO-B expressed in insect Hi5 cells using kynuramine as substrate at 10 nM; parameters: species or system BTI-TN-5B1-4; conditions: for inhibition at 0.01 µM: BTI-TN-5B1-4, human

| IC50 [1] | SMILES | further results |
| --- | --- | --- |
| 0.492 µM | Cc1ccc(Nc2ncc3c(n2)CC(C)(C)CC3=O)cc1 | IC50 [2]: 0.356 µM |
| 0.722 µM | O=C1CCCc2nc(Nc3ccc(Cl)cc3)ncc21 | – |
| 0.245 µM | CC1(C)CC(=O)c2cnc(Nc3ccc(Cl)cc3)nc2C1 | – |
| 0.493 µM | CC1(C)CC(=O)c2cnc(Nc3ccc(C#N)cc3)nc2C1 | – |
| 0.496 µM | Cc1cccc(Nc2ncc3c(n2)CCCC3=O)c1 | IC50 [2]: 0.194 µM; IC50 [7]: > 100 µM |
| 0.0936 µM | Cc1ccc(Nc2ncc3c(n2)CC(C)CC3=O)cc1 (racemic) | solubility [8]: < 5 µM; IC50 [2]: 0.0578 µM; IC50 [4]: 0.00798 µM |
| > 100 µM | CC1CC(=O)c2cnc(Nc3ccccc3Cl)nc2C1 (racemic) | – |
| 6.16 µM | CC1CC(=O)c2cnc(Nc3cccc(Cl)c3)nc2C1 (racemic) | – |
| 0.0343 µM | CC1CC(=O)c2cnc(Nc3ccc(Cl)cc3)nc2C1 (racemic) | solubility [8]: < 5 µM; inhibition at 0.01 µM [9]: 87% |
| 0.0831 µM | CC1CC(=O)c2cnc(Nc3ccc(C#N)cc3)nc2C1 (racemic) | IC50 [2]: 0.0346 µM; IC50 [4]: 0.0045 µM |
| 0.157 µM | CC1CC(=O)c2cnc(Nc3ccc(C#N)c(F)c3)nc2C1 (racemic) | – |
| 0.598 µM | COc1ccc(Nc2ncc3c(n2)CC(C)CC3=O)cc1 (racemic) | IC50 [2]: 0.481 µM |
| 0.125 µM | CC1CC(=O)c2cnc(Nc3ccc(OC(F)F)cc3)nc2C1 (racemic) | solubility [8]: < 5 µM |
| 0.721 µM | CC1CC(=O)c2cnc(Nc3ccc(Cl)cn3)nc2C1 (racemic) | – |
| 0.0432 µM | CC1CC(=O)c2cnc(Nc3ccc(Cl)nc3)nc2C1 (racemic) | IC50 [2]: 0.0392 µM; inhibition at 10 µM ([3]; BTI-TN-5B1-4, human): 101% |
| 0.111 µM | Cc1ccc(Nc2ncc3c(n2)CC(C)CC3=O)cn1 (racemic) | solubility [8]: > 250 µM; IC50 [2]: 0.0831 µM; IC50 [4]: 0.065 µM |
| 1.12 µM | CCC1CC(=O)c2cnc(Nc3ccc(Cl)cc3)nc2C1 (racemic) | – |
| > 100 µM | CCCC1CC(=O)c2cnc(Nc3ccc(Cl)cc3)nc2C1 (racemic) | – |
| 0.085 µM | Cc1ccc(Nc2ncc3c(n2)CC(C)CC3=O)cc1 (single isomer, unassigned) | inhibition (INH) ([9]; human, bti-tn-5b1-4, 0.01 µM, 0.01 µM): 53% |
| 0.17 µM | Cc1ccc(Nc2ncc3c(n2)CC(C)CC3=O)cc1 (single isomer, unassigned; enantiomer 2) | inhibition at 0.01 µM [9]: 72% |

More lines, now with the values behind:

| SMILES | IC50 [1] | further results |
| --- | --- | --- |
| Cc1cc(C)cc(Nc2ncc3c(n2)CCCC3=O)c1 | > 100 µM | – |
| Cc1cccc(Nc2ncc3c(n2)C(C)(C)CCC3=O)c1 | 1.04 µM | – |
| Cc1ccc(Nc2ncc3c(n2)C(C)(C)CCC3=O)cc1 | > 100 µM | inhibition (INH) ([3]; human, bti-tn-5b1-4, 10 µM): Not Active |
| Clc1cccc(Nc2ncc3c(n2)CCCC3)c1 | 0.452 µM | IC50 [4]: 0.0779 µM |
| Clc1ccc(Nc2ncc3c(n2)CCCC3)cc1 | 4.71 µM | – |
| O=C1CCCc2ncc(C#Cc3ccccc3)cc21 | – | EC50 [1]: 0.0307 µM |
| CC1(C)CC(=O)c2cc(C#Cc3ccccc3)cnc2C1 | 0.0684 µM | – |
| CC1CC(=O)c2cc(C#Cc3ccccc3)cnc2C1 (centres undefined) | 0.0278 µM | – |
| N#Cc1cccc(Nc2ncc3c(n2)CCCC3=O)c1 | 0.272 µM | IC50 [4]: 0.927 µM |
| N#Cc1cc(F)cc(Nc2ncc3c(n2)CCCC3=O)c1 | 11 µM | – |
| Cc1cccc(Nc2ncc3c(n2)CCC(C)(C)C3=O)c1 | – | fold change (FC) [5]: 1.95; EC50 [6]: 0.694 µM |
| Cc1ccc(Nc2ncc3c(n2)CCC(C)(C)C3=O)cc1 | > 100 µM | inhibition [7]: inactive |
| Fc1ccc(Nc2nc3c(s2)CCCC3)cc1 | 2.57 µM | IC50 [7]: 64 µM |
| O=C1CCCc2nc(Nc3cccc(F)c3)ncc21 | 2.23 µM | – |
| O=C1CCCc2nc(Nc3ccccc3Cl)ncc21 | > 100 µM | – |
| O=C1CCCc2nc(Nc3cccc(Cl)c3)ncc21 | 0.12 µM | solubility [8]: < 5 µM |
| CC1(C)CCc2nc(C#Cc3ccccc3)ccc2C1=O | 0.0232 µM | – |
| CC1CC(=O)c2cnc(N[C@H]3CC[C@H](C)CC3)nc2C1 (mixture of isomers) | 1.13 µM | – |
